Assay results published in article PMC9569420 (Communications Biology, 2022).

How the values were obtained:
[1] = target: T1, STK21/CIT (Homo sapiens, UniProt O14578); assay: HotSpot kinase assay; assay type: biochemical; details: read-out: % Enzyme Activity (relative to DMSO controls)
T1 construct: purchased Reaction Biology Corporation

[2] = target: T2, EGFR (Homo sapiens, UniProt P00533); assay: biochemical
T2 construct: purchased Reaction Biology Corporation

[3] = target: T3, CK1epsilon (Homo sapiens, UniProt P49674); assay: HotSpot kinase assay; assay type: biochemical; details: read-out: % Enzyme Activity (relative to DMSO controls)
T3 construct: purchased Reaction Biology Corporation

[4] = target: T4, ZIPK/DAPK3 (Homo sapiens, UniProt O43293); assay: HotSpot kinase assay; assay type: biochemical; details: read-out: % Enzyme Activity (relative to DMSO controls)
T4 construct: purchased Reaction Biology Corporation

[5] = target: T5, TAK1 (Homo sapiens, UniProt O43318); assay: HotSpot kinase assay; assay type: biochemical; details: read-out: % Enzyme Activity (relative to DMSO controls)
T5 construct: purchased Reaction Biology Corporation

[6] = target: T6, PKG2/PRKG2 (Homo sapiens, UniProt Q13237); assay: HotSpot kinase assay; assay type: biochemical; details: read-out: % Enzyme Activity (relative to DMSO controls)
T6 construct: purchased Reaction Biology Corporation

[7] = target: T7, FGR (Homo sapiens, UniProt P09769); assay: HotSpot kinase assay; assay type: biochemical; details: read-out: % Enzyme Activity (relative to DMSO controls)
T7 construct: purchased Reaction Biology Corporation

[8] = target: T8, MYLK4 (Homo sapiens, UniProt Q86YV6); assay: HotSpot kinase assay; assay type: biochemical; details: read-out: % Enzyme Activity (relative to DMSO controls)
T8 construct: purchased Reaction Biology Corporation

[9] = target: T9, CDK2/cyclin O (Homo sapiens, UniProt P24941); assay: HotSpot kinase assay; assay type: biochemical; details: read-out: % Enzyme Activity (relative to DMSO controls)
T9 construct: purchased Reaction Biology Corporation

[10] = target: T10, ERK2/MAPK1 (Homo sapiens, UniProt P28482); assay: HotSpot kinase assay; assay type: biochemical; details: read-out: % Enzyme Activity (relative to DMSO controls)
T10 construct: purchased Reaction Biology Corporation

[11] = target: T11, IKKe/IKBKE (Homo sapiens, UniProt Q14164); assay: HotSpot kinase assay; assay type: biochemical; details: read-out: % Enzyme Activity (relative to DMSO controls)
T11 construct: purchased Reaction Biology Corporation

[12] = target: T12, FRK/PTK5 (Homo sapiens, UniProt P42685); assay: HotSpot kinase assay; assay type: biochemical; details: read-out: % Enzyme Activity (relative to DMSO controls)
T12 construct: purchased Reaction Biology Corporation

[13] = target: T13, MASTL (Homo sapiens, UniProt Q96GX5); assay: HotSpot kinase assay; assay type: biochemical; details: read-out: % Enzyme Activity (relative to DMSO controls)
T13 construct: purchased Reaction Biology Corporation

[14] = target: T14, TSSK2 (Homo sapiens, UniProt Q96PF2); assay: HotSpot kinase assay; assay type: biochemical; details: read-out: % Enzyme Activity (relative to DMSO controls)
T14 construct: purchased Reaction Biology Corporation

[15] = tested on: Akt, PDPK1, PLCγ
[16] = target: T15, DYRK2 (Homo sapiens, UniProt Q92630); assay: HotSpot kinase assay; assay type: biochemical; details: read-out: % Enzyme Activity (relative to DMSO controls)
T15 construct: purchased Reaction Biology Corporation

[17] = target: T16, TLK1 (Homo sapiens, UniProt Q9UKI8); assay: HotSpot kinase assay; assay type: biochemical; details: read-out: % Enzyme Activity (relative to DMSO controls)
T16 construct: purchased Reaction Biology Corporation

[18] = target: T17, CLK4 (Homo sapiens, UniProt Q9HAZ1); assay: HotSpot kinase assay; assay type: biochemical; details: read-out: % Enzyme Activity (relative to DMSO controls)
T17 construct: purchased Reaction Biology Corporation

[19] = target: T18, MEK3 (Homo sapiens, UniProt P46734); assay: HotSpot kinase assay; assay type: biochemical; details: read-out: % Enzyme Activity (relative to DMSO controls)
T18 construct: purchased Reaction Biology Corporation

[20] = target: T19, SGK2 (Homo sapiens, UniProt Q9HBY8); assay: HotSpot kinase assay; assay type: biochemical; details: read-out: % Enzyme Activity (relative to DMSO controls)
T19 construct: purchased Reaction Biology Corporation

[21] = target: T20, PYK2 (Homo sapiens, UniProt Q14289); assay: HotSpot kinase assay; assay type: biochemical; details: read-out: % Enzyme Activity (relative to DMSO controls)
T20 construct: purchased Reaction Biology Corporation

[22] = target: T21, FGFR4 (Homo sapiens, UniProt P22455); assay: HotSpot kinase assay; assay type: biochemical; details: read-out: % Enzyme Activity (relative to DMSO controls)
T21 construct: purchased Reaction Biology Corporation

[23] = tested on: HSV-1 K26GFP; assay: capsid entry, confocal imaging, HaCat cells; assay type: cell-based; details: 1 h post-temperature shift; CIMSS 10 μM, antibody 2 μg/ml
Method: To quantify viral entry, cells were synchronously infected by allowing virus to bind to cells at 4°C for 4 h, washed, and then transferred to 37 °C. CIMSS or control DMSO was added at the time of temperature shift. At indicated times post-temperature shift, the cells were treated with a low pH buffer to inactivate virus that had not penetrated, washed, overlaid with medium containing methyl cellulose and viral plaques were counted at 48 h. Entry was also assessed by immunoblotting nuclear extracts for VP16. […] Nuclear extracts were prepared after 1 h and analyzed by western blot with antibodies targeting VP16, histone H1 and golgin-97[5]. The non-nuclear fraction was also probed for golgin-97 as a positive control. […] After 1 or 4 h of incubation, the cells were fixed. Plasma membranes were stained using Image -IT^TM LIVE Plasma Membrane kit and nuclei were stained with DAPI (Thermo Fisher Scientific, Cat 134406). The percentage of GFP + nuclei was determined by counting ~200 cells over 3–4 fields. Images were obtained with Leica SP8 microscope (objective 63 × 1.4); xz images were captured with optical slice 0.6 µm, 25–30 slices per image.

[24] = target: T22, Haspin (Homo sapiens, UniProt Q8TF76); assay: HotSpot kinase assay; assay type: biochemical; details: read-out: % Enzyme Activity (relative to DMSO controls)
T22 construct: purchased Reaction Biology Corporation

[25] = target: T23, TRKC (Homo sapiens, UniProt Q16288); assay: HotSpot kinase assay; assay type: biochemical; details: read-out: % Enzyme Activity (relative to DMSO controls)
T23 construct: purchased Reaction Biology Corporation

[26] = target: T24, FGFR2 (Homo sapiens, UniProt P21802); assay: HotSpot kinase assay; assay type: biochemical; details: read-out: % Enzyme Activity (relative to DMSO controls)
T24 construct: purchased Reaction Biology Corporation

[27] = tested on: VSV-S; assay type: cell-based, VSV pseudotyped with SARS-CoV-2 spike
[28] = target: T25, FMS (Homo sapiens, UniProt P07333); assay: HotSpot kinase assay; assay type: biochemical; details: read-out: % Enzyme Activity (relative to DMSO controls)
T25 construct: purchased Reaction Biology Corporation

[29] = tested on: Akt (pAkt T308) in HaCat cells; assay: Akt phosphorylation in response to insulin (confocal); assay type: cell-based, human; details: insulin 10 μM, CIMSS 10 or 100 µM
[30] = target: T26, NEK9 (Homo sapiens, UniProt Q8TD19); assay: HotSpot kinase assay; assay type: biochemical; details: read-out: % Enzyme Activity (relative to DMSO controls)
T26 construct: purchased Reaction Biology Corporation

[31] = Parallel artificial membrane permeability assay (PAMPA); assay type: in vitro ADME
[32] = target: T27, DRAK1/STK17A (Homo sapiens, UniProt Q9UEE5); assay: HotSpot kinase assay; assay type: biochemical; details: read-out: % Enzyme Activity (relative to DMSO controls)
T27 construct: purchased Reaction Biology Corporation

[33] = target: T28, MAST3 (Homo sapiens, UniProt O60307); assay: HotSpot kinase assay; assay type: biochemical; details: read-out: % Enzyme Activity (relative to DMSO controls)
T28 construct: purchased Reaction Biology Corporation

[34] = target: T29, PAK5 (Homo sapiens, UniProt Q9P286); assay: HotSpot kinase assay; assay type: biochemical; details: read-out: % Enzyme Activity (relative to DMSO controls)
T29 construct: purchased Reaction Biology Corporation

[35] = target: T30, CDK5/P25 (Homo sapiens, UniProt Q00535); assay: HotSpot kinase assay; assay type: biochemical; details: read-out: % Enzyme Activity (relative to DMSO controls)
T30 construct: purchased Reaction Biology Corporation

T2 sequence (P00533 25-1210): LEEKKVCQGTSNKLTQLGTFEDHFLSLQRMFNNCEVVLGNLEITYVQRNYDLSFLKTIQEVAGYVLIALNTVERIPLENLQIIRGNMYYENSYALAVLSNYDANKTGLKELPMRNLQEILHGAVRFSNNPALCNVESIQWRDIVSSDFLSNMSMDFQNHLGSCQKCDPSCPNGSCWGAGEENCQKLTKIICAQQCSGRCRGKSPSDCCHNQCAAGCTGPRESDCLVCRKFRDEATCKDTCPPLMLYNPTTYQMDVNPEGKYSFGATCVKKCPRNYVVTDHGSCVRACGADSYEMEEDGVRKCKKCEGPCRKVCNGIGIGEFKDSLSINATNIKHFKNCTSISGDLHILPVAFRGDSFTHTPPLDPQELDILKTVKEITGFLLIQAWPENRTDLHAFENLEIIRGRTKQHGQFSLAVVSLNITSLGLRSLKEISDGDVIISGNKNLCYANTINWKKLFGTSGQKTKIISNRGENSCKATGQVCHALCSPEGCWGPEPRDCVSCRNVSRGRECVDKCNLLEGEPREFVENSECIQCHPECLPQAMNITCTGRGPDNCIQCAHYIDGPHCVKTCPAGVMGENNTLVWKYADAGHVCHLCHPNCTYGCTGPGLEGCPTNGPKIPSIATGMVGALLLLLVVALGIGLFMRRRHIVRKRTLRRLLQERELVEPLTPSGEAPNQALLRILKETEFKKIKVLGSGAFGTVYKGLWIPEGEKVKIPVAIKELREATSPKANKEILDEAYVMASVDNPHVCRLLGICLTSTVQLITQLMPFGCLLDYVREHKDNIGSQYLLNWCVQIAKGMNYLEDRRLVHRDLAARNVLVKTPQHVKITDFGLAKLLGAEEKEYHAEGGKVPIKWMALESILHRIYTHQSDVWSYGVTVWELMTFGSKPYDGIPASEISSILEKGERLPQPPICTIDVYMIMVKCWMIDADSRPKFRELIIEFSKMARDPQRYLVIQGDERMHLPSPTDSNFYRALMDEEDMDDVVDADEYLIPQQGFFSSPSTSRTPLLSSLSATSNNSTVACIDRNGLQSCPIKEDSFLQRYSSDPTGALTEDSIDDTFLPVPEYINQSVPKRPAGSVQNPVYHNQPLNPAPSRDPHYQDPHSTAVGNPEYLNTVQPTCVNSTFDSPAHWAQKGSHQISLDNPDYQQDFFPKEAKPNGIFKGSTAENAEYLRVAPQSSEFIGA
T28 sequence (O60307 whole entry): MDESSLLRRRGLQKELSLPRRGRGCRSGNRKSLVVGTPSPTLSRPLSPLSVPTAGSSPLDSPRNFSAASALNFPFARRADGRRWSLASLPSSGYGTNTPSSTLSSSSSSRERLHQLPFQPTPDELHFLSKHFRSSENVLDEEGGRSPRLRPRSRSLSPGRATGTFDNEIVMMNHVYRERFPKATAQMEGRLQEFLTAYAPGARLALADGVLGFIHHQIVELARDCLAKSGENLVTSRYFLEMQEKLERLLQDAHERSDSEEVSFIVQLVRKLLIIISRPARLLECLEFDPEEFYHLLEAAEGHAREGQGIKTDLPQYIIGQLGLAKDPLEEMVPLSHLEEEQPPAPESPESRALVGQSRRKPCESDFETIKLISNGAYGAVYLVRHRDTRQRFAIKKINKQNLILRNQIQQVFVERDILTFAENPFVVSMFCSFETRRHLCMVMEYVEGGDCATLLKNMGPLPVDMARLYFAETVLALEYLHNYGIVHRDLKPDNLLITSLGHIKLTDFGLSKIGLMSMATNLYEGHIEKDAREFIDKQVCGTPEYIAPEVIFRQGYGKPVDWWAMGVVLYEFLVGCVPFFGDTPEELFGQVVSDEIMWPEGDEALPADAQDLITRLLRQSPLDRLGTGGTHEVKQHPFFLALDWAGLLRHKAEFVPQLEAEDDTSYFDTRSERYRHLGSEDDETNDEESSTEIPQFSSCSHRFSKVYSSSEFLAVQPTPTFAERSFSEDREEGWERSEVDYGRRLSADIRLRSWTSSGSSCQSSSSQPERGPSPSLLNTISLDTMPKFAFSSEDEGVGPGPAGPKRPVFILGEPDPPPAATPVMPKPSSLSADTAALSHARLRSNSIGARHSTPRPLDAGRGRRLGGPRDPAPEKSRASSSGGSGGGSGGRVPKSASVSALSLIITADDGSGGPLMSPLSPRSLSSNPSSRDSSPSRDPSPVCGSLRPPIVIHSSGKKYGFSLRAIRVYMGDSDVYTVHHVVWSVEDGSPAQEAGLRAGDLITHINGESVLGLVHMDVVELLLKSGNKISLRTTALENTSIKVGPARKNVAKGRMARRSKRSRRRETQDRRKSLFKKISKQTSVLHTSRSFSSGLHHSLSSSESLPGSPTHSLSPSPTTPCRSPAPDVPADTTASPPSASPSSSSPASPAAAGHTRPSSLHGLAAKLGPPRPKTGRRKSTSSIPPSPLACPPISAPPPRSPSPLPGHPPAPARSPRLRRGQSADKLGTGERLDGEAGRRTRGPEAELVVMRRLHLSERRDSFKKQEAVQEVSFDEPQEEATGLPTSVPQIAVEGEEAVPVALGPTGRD
T21 sequence (P22455 22-802): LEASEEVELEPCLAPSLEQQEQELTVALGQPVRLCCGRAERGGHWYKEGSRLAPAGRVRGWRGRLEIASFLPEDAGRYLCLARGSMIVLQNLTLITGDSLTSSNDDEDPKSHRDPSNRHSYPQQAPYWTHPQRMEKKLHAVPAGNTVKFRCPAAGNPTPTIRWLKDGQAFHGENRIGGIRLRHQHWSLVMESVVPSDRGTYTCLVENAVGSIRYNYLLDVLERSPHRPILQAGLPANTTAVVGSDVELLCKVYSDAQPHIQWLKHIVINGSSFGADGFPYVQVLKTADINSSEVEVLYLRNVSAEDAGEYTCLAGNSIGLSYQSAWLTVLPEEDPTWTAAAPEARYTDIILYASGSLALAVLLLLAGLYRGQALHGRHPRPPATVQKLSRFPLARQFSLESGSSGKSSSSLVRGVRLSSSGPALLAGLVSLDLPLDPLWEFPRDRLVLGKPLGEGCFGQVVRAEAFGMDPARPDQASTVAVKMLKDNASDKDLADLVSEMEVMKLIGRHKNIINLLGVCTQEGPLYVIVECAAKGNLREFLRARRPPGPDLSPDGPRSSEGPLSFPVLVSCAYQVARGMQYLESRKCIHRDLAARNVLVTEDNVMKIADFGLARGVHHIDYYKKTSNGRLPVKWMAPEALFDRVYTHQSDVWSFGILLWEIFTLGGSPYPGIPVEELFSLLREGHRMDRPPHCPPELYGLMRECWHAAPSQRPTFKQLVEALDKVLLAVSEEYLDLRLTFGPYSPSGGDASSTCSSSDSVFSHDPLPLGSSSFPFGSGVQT
T13 sequence (Q96GX5 whole entry): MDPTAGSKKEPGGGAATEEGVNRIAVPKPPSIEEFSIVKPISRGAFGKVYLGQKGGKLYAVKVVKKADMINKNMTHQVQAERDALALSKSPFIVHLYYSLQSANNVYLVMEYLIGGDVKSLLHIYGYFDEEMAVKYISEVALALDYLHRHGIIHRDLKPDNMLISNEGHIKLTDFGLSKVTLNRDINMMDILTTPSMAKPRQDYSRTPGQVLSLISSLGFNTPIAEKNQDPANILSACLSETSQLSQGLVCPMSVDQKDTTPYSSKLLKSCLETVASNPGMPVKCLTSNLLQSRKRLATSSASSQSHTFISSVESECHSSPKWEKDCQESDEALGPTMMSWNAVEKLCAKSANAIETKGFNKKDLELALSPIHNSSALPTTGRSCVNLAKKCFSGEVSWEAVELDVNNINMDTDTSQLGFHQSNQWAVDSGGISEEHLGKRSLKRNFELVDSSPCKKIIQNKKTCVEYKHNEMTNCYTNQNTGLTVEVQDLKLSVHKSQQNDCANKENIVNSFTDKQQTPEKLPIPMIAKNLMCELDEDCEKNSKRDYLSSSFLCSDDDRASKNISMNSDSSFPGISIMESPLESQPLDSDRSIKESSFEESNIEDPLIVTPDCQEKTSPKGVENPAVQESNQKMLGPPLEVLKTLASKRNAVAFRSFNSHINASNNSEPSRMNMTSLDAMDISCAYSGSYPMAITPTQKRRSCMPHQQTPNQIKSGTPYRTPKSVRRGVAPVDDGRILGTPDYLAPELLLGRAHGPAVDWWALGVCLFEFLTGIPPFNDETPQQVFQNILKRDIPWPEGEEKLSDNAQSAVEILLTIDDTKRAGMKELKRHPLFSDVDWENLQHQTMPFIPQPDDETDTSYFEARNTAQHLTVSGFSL
T5 sequence (O43318 1-303 limits assumed): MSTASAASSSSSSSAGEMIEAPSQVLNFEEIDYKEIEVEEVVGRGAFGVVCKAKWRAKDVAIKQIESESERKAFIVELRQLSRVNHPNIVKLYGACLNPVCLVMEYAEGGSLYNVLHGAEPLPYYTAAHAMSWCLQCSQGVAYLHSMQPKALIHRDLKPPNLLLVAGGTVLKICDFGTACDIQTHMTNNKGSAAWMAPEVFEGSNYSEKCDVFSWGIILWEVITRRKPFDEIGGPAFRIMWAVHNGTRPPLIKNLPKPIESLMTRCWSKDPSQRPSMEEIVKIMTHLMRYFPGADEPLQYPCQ
T5 sequence (Q15750 437-504 partner limits assumed): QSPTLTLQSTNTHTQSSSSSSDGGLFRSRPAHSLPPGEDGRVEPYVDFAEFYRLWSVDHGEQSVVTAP
T14 sequence (Q96PF2 whole entry): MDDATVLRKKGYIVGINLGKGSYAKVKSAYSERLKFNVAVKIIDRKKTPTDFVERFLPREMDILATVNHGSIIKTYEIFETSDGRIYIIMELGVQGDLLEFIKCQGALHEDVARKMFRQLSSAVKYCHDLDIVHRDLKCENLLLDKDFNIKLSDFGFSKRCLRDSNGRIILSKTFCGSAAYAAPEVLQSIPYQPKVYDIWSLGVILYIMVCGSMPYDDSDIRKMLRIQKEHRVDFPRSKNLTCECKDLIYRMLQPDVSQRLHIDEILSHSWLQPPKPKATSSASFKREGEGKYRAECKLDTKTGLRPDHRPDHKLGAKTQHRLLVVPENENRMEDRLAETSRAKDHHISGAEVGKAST

CO[C@@H]1[C@H](N(C)C(=O)CCC(=O)NCc2cn(CCCS(=O)(=O)O)nn2)C[C@H]2O[C@]1(C)n1c3ccccc3c3c4c(c5c6ccccc6n2c5c31)C(=O)NC4 [CIMSS]
remaining activity at 10 µM [1]: 81.7%
IC50 ([2]; Supplementary Table 1, read-out: IC50 (Molar concentration)): 1.61 µM
remaining activity at 10 µM ([2]; read-out: % Enzyme Activity (relative to DMSO controls), 10µM): 17.4%
remaining activity at 10 µM [3]: 38.8%
remaining activity at 10 µM [4]: 6.48%
remaining activity at 10 µM [5]: 7.2%
remaining activity at 10 µM [6]: 1.99%
remaining activity at 10 µM [7]: 1.68%
remaining activity at 10 µM [8]: 6.48%
remaining activity at 10 µM [9]: 4.97%
remaining activity at 10 µM [10]: 75.3%
remaining activity at 10 µM [11]: 1.47%
remaining activity at 10 µM [12]: 4.49%
remaining activity at 10 µM [13]: 33.8%
remaining activity at 10 µM [14]: 21.2%
levels of phosphorylated Akt (serine 473 and threonine 308) in non-permeabilized cells ([15]; 10µM): reduce levels
phosphorylation of PDPK1 and PLCγ ([15]; 10 µM, 15 and 30 min following viral infection): inhibited
remaining activity at 10 µM [16]: 9.12%
remaining activity at 10 µM [17]: 26.1%
remaining activity at 10 µM [18]: 10.4%
remaining activity at 10 µM [19]: 49.3%
remaining activity at 10 µM [20]: 22.6%
remaining activity at 10 µM [21]: 2.4%
remaining activity at 10 µM [22]: 4.31%
percentage of GFP + cells [23]: significantly decreased
remaining activity at 10 µM [24]: 49.5%
remaining activity at 10 µM [25]: 0.34%
remaining activity at 10 µM [26]: 2.58%
VSV-S infection [27]: inhibited
remaining activity at 10 µM [28]: 0.52%
block of Akt phosphorylation in response to insulin [29]: did not block
remaining activity at 10 µM [30]: 2.81%
Recover % ([31]; 100 µM): 83%
Papp at 5 h, 100 μM ([31]; PAMPA, PBS pH 7.4, 5 h): 0.005 ×10⁻⁶ cm/s
remaining activity at 10 µM [32]: 18.2%
remaining activity at 10 µM [33]: 106%
remaining activity at 10 µM [34]: 7.72%
remaining activity at 10 µM [35]: 7.17%
